The test system of one test is Pythium ultimum (PYU). The test is described as follows: In-vitro plant fungicide test. In kind it is cell-based. As to conditions: Globisporangium ultimum; 25 ppm; Table IVa; read-out: % Control at 25 ppm PYU.
The test system of test [1] is Phytophthora capsici (PHY). Put plainly: In-vitro plant fungicide test. In kind it is cell-based. As to conditions: Phytophthora capsici; 25 ppm; Table IVa; read-out: % Control at 25 ppm PHY.
In the next test the test system is Escherichia coli (ECOL). Put plainly: Minimum inhibitory concentration (MIC), broth two-fold serial dilution test. As to conditions: Escherichia coli.
The subject of the next test is Septoria nodorum (SEP). Put plainly: In-vitro plant fungicide test. In kind it is cell-based. The settings on record: Parastagonospora nodorum, 25 ppm; Table IVa; read-out: % Control at 25 ppm SEP.
The test system of test [2] is Aureobasidium pullulans (APUL). The test is described as follows: Minimum inhibitory concentration (MIC), broth two-fold serial dilution test. In kind it is cell-based. The settings on record: Aureobasidium pullulans.
Another test relates to Piricularia oryzae (PIR). Put plainly: microbe, parasite or virus in culture. As to conditions: read-out: % Control at 25 ppm PIR. In kind it is cell-based.
Test [3] deals with Pseudomonas fluorescens (PSFL). The test is described as follows: Minimum inhibitory concentration (MIC), broth two-fold serial dilution test. As to conditions: Pseudomonas fluorescens.
In test [4] the test system is Pseudomonas aerugenosa (PSAE). The description is as above. The settings on record: Pseudomonas.
The test system of the next test is Aspergillus niger (ANIG). The description is as above. In kind it is cell-based. The settings on record: Aspergillus niger.
In the next test the test system is Fusarium roseum (FUS). Put plainly: In-vitro plant fungicide test. The settings on record: Fusarium sambucinum, read-out: % Control at 25 ppm FUS, 25 ppm; Table IVa; *=Phytotoxic. In kind it is cell-based.
The subject of a further test is Botrytis cinerea (BOC). The test is described as follows: In-vitro plant fungicide test. In kind it is cell-based. As to conditions: Botrytis cinerea, 25 ppm; Table IVa; *=Phytotoxic; read-out: % Control at 25 ppm BOC.
Test [5] relates to Xanthomonas campestris (XAN). Put plainly: In-vitro plant fungicide test. In kind it is cell-based. As to conditions: Xanthomonas campestris; 25 ppm; Table IVa; read-out: % Control at 25 ppm XAN.
The test system of a further test is THREE FUNGI. The test is described as follows: MIC test against three fungi in Mycophile Broth, pH 5.0, read after 8 days (Table VII). In kind it is cell-based. As to conditions: 192 h.
Another test has as its system Rhizoctonia solani (RHI). The test is described as follows: In-vitro plant fungicide test. In kind it is cell-based. The settings on record: Rhizoctonia solani; 25 ppm; Table IVa; read-out: % Control at 25 ppm RHI.
In test [6] the test system is Staphylococcus aureus (SAUR). The test is described as follows: Minimum inhibitory concentration (MIC), broth two-fold serial dilution test. As to conditions: Staphylococcus aureus.
The subject of test [7] is Cochliobolus sativus (HEL). Put plainly: In-vitro plant fungicide test. In kind it is cell-based. The settings on record: Bipolaris sorokiniana, 25 ppm; Table IVa; *=Phytotoxic; read-out: % Control at 25 ppm HEL.
The subject of the next test is 8 FUNGI. Put plainly: Microbicides secondary test against 8 fungi on Mycophile Agar at pH 5.0 (Table VI). In kind it is cell-based. On the set-up: key: 1= no growth; 0= growth of the indicated fungi at dose indicated in ppm. As to conditions: for ANIG growth: Aspergillus niger; for APUL growth: Aureobasidium pullulans; for CGLO growth: Chaetomium globosum; for CRES growth: Cladosporium resinae; for GTRA growth: Gloeophyllum trabeum; for PFUN growth: Penicillium funiculosum; for RRUB growth: Rhodotorula rubra; for SSER growth: Sacharomyces cerevisiae. From the text:
The results of the minimum inhibitory concentration (MIC) tests of compounds of this invention are shown in Tables IIIa IIIb, IIIc, V, VI, VII, and VIII against the microorganisms shown in Table IX.

Test [8] has as its system MIXED COOLING TOWER ALGAE. The test is described as follows: MIC test against mixed cooling tower algae. In kind it is cell-based, green algae and blue-green bacteria. The settings on record: Table VIII. Here is the method: The algae culture contains green algae and blue-green bacteria, and is obtained from a cooling tower in Spring House, Pennsylvania. The algae culture is grown in Allen's medium on a rotary shaker under flourescent room lighting. This culture is further diluted with Allen's medium and then added to the test vessel.

The mark [9] stands for this setting: read-out: MIC (G-) ECOL, M9G (minimal salts media with glucose), Table IIIc, iodopropargyl esters of peptides.
Setting [10] is: read-out: MIC (F) APUL, M9G (minimal salts media with glucose), Table IIIc, iodopropargyl esters of peptides.
[11] abbreviates: read-out: MIC (G-) PSFL, M9G (minimal salts media with glucose), Table IIIc, iodopropargyl esters of peptides.
The mark [12] stands for this setting: read-out: MIC (G-) PSAE, M9G (minimal salts media with glucose), Table IIIc, iodopropargyl esters of peptides.
The mark [13] stands for this setting: read-out: MIC (F) ANIG, M9G (minimal salts media with glucose), Table IIIc, iodopropargyl esters of peptides.
Where [14] appears, read: Aspergillus niger, pH 5, read-out: MIC ANIG, Aspergillus niger, serial dilutions from 50 ppm, read after 8 days of incubation.
[15] abbreviates: Aureobasidium pullulans, pH 5, read-out: MIC APUL, Aureobasidium pullulans, serial dilutions from 50 ppm, read after 8 days of incubation.
Where [16] appears, read: Gloeophyllum trabeum, pH 5, read-out: MIC GTRA, Gloeophyllum trabeum, serial dilutions from 50 ppm, read after 8 days of incubation.
Setting [17] is: read-out: MIC (G+) SAUR, M9G (minimal salts media with glucose), Table IIIc, iodopropargyl esters of peptides.

Converted amounts (≈) assume the structure as drawn. Counter-ions that a name gives are not always drawn. Like-named read-outs stand apart in the source and are kept apart here.

Regarding `C[C@H](N)C(=O)N[C@@H](C)C(=O)OCC#CI` [Compound 18, L-alanyl-L-alanine iodopropargyl ester trifluoroacetate], the inhibition of growth at 25 ppm with Pythium ultimum (PYU) is 100%; in test [1], 100%; in the test on Septoria nodorum (SEP) it was 100%; in the test with Piricularia oryzae (PIR), 100%; in the test on Fusarium roseum (FUS), 100%; in the test with Botrytis cinerea (BOC), 50%. Also, the values for the inhibition of growth at 25 ppm (in [5]; in the test with Rhizoctonia solani (RHI); in test [7]) were 0%, 100% and 100%, respectively. Further, the MIC (commonly the smallest concentration in the dilution series that meets the test's criterion for growth inhibition) in the test on Escherichia coli (ECOL) (setting [9]) is 100 µg/mL; in test [2] (setting [10]) it was under 0.8 µg/mL; in [3] (setting [11]), 100 µg/mL; in test [4] (setting [12]) it was 100 µg/mL; in the test with Aspergillus niger (ANIG) (setting [13]), under 0.8 µg/mL; with THREE FUNGI (setting [14]) it was 12.5 µg/mL. Besides, the MIC was 50 µg/mL in the test on THREE FUNGI (setting [15]), 12.5 µg/mL in the test on THREE FUNGI (setting [16]) and over 100 µg/mL in [6] (setting [17]).
For `C[C@H](N)C(=O)N[C@@H](CSCc1ccccc1)C(=O)OCC#CI` [Compound 20, L-alanyl-S-benzyl-L-cysteine iodopropargyl ester trifluoroacetate], the inhibition of growth at 25 ppm is 100% in the test with Pythium ultimum (PYU); 100% in [1]; 100% in the test on Septoria nodorum (SEP); 100% with Piricularia oryzae (PIR); 100% with Fusarium roseum (FUS); 0% in the test on Botrytis cinerea (BOC). The inhibition of growth at 25 ppm worked out at 0% in test [5], 100% in the test with Rhizoctonia solani (RHI) and 100% in test [7]. In addition, the MIC in the test with Escherichia coli (ECOL) (setting [9]) was 100 µg/mL; in test [2] (setting [10]), under 0.8 µg/mL; in test [3] (setting [11]), 100 µg/mL; in test [4] (setting [12]), 100 µg/mL; with Aspergillus niger (ANIG) (setting [13]) it was under 0.8 µg/mL; with THREE FUNGI (setting [14]), 50 µg/mL. In addition, the MIC with THREE FUNGI (setting [15]) amounted to 50 µg/mL; with THREE FUNGI (setting [16]) it was 12.5 µg/mL; in test [6] (setting [17]), 100 µg/mL.
Turning to `C[C@H](N)C(=O)N[C@H](C(=O)OCC#CI)[C@@H](C)OCc1ccccc1` [Compound 21, L-alanyl-O-benzyl-L-threonine iodopropargyl ester trifluoroacetate], the inhibition of growth at 25 ppm in the test with Pythium ultimum (PYU) was found to be 100%; in [1], 100%; in the test on Septoria nodorum (SEP), 100%; in the test on Piricularia oryzae (PIR), 100%; in the test with Fusarium roseum (FUS), 0%; in the test on Botrytis cinerea (BOC), 0%. The results for the inhibition of growth at 25 ppm (in test [5]; in the test with Rhizoctonia solani (RHI); in test [7]) were 0%, 100% and 0%, respectively. The MIC in the test on Escherichia coli (ECOL) (setting [9]) is 100 µg/mL; in test [2] (setting [10]), 1.6 µg/mL; in [3] (setting [11]), 100 µg/mL; in test [4] (setting [12]) it was 100 µg/mL; with Aspergillus niger (ANIG) (setting [13]), under 0.8 µg/mL; with THREE FUNGI (setting [14]) it was 50 µg/mL. For the same compound, the MIC in the test with THREE FUNGI (setting [15]) is over 50 µg/mL; with THREE FUNGI (setting [16]) it was 50 µg/mL; in [6] (setting [17]) it was over 100 µg/mL.
For the compound `O=C(CNC(=O)OCc1ccccc1)OCC#CI` [Compound 31, N-benzyloxycarbonylglycine iodopropargyl ester], the MIC with Escherichia coli (ECOL) (IIIB, read-out: MIC (G-) ECOL, trypticase soy broth (complex media), Table IIIb) worked out at 250 µg/mL (≈ 670 µM); in [2] (IIIB, trypticase soy broth (complex media), Table IIIb, read-out: MIC (F) APUL) it was 4 µg/mL (≈ 10.7 µM); in test [3] (IIIB, read-out: MIC (G-) PSFL, trypticase soy broth (complex media), Table IIIb), 32 µg/mL (≈ 85.8 µM); in test [4] (IIIB, read-out: MIC (G-) PSAE, trypticase soy broth (complex media), Table IIIb), 63 µg/mL (≈ 169 µM); with Aspergillus niger (ANIG) (IIIB, trypticase soy broth (complex media), Table IIIb, read-out: MIC (F) ANIG) it was 2 µg/mL (≈ 5.36 µM); in the test with THREE FUNGI (Aspergillus niger, serial dilutions from 50 ppm, read after 8 days of incubation, read-out: MIC ANIG), 1.6 µg/mL (≈ 4.29 µM). In addition, the MIC is 6.2 µg/mL (≈ 16.6 µM) in the test with THREE FUNGI (Aureobasidium pullulans, serial dilutions from 50 ppm, read after 8 days of incubation, read-out: MIC APUL); 0.8 µg/mL (≈ 2.14 µM) in the test with THREE FUNGI (Gloeophyllum trabeum, serial dilutions from 50 ppm, read after 8 days of incubation, read-out: MIC GTRA); 6.2 µg/mL (≈ 16.6 µM) in test [8]; 32 µg/mL (≈ 85.8 µM) in test [6] (IIIB, read-out: MIC (G+) SAUR, trypticase soy broth (complex media), Table IIIb). Also, the ANIG growth in the test with 8 FUNGI (0.2 PPM) is given as 0; with 8 FUNGI (1.0 PPM), 0; in the test on 8 FUNGI (2.5 PPM), 1; in the test with 8 FUNGI (25 PPM), 1. Further, the APUL growth with 8 FUNGI (0.2 PPM) is listed as 0; in the test with 8 FUNGI (1.0 PPM), 0; in the test with 8 FUNGI (2.5 PPM), 0; in the test with 8 FUNGI (25 PPM), 1. In addition, the CGLO growth in the test on 8 FUNGI (0.2 PPM) is on record as 0; in the test with 8 FUNGI (1.0 PPM), 0; in the test on 8 FUNGI (2.5 PPM), 1; in the test on 8 FUNGI (25 PPM), 1. Further, the CRES growth in the test on 8 FUNGI (0.2 PPM) is 0; in the test with 8 FUNGI (1.0 PPM) it was 0; in the test on 8 FUNGI (2.5 PPM), 0; in the test on 8 FUNGI (25 PPM) it was 1. The GTRA growth with 8 FUNGI (0.2 PPM) is reported as 0; with 8 FUNGI (1.0 PPM), 0; in the test with 8 FUNGI (2.5 PPM) it was 1; in the test on 8 FUNGI (25 PPM), 1. Further, the PFUN growth with 8 FUNGI (0.2 PPM) was determined as 0; with 8 FUNGI (1.0 PPM), 0; in the test on 8 FUNGI (2.5 PPM) it was 1; with 8 FUNGI (25 PPM) it was 1. Also, the RRUB growth with 8 FUNGI (0.2 PPM) came out at 0; in the test with 8 FUNGI (1.0 PPM), 0; in the test on 8 FUNGI (2.5 PPM), 0; in the test with 8 FUNGI (25 PPM) it was 1. For the same compound, the SSER growth is listed as 0 in the test on 8 FUNGI (0.2 PPM), 0 in the test with 8 FUNGI (1.0 PPM), 0 in the test on 8 FUNGI (2.5 PPM) and 1 in the test on 8 FUNGI (25 PPM).

(Values after patent EP0414533A1, “Use of iodopropargyl esters of alpha-amino acid derivatives as antimicrobial agents” (ROHM AND HAAS COMPANY, priority 1989, dated 1991).)
